BindingDB's records for doi:10.1021/jm020588f (The Danish University of Pharmaceutical Sciences, 2003)

Experiment: Effective concentration of compound was determined for electrophysiological properties on Ionotropic glutamate receptor AMPA 1 (GluR1) using […] Xenopus laevis oocytes

NC(Cc1o[nH]c(=O)c1Cl)C(=O)O [(R,S)-2-amino-3-(4-chloro-3-hydroxy-5-isoxazolyl)propionate]
EC50: 4.7 µM
